From US20040005256A1, “Crystallization system utilizing atomization” (priority 2002, published 2004)

Assay: maximum concentration of D,L-Threonine dissolved in water
Format: physicochemical
Conditions: solid dissolved in water (solvent) before atomization into acetone anti-solvent
Experimental: For example, the material-containing solution may be composed of a solvent, such as water, and a material to be crystallized, such as D,L-Threonine, dissolved in the water. The anti-solvent could be acetone. The solid D,L-Threonine is dissolved at its maximum concentration ratio (160 g/L) in water. The D,L-Threonine solution is atomized and introduced into the acetone. The atomized solution and the acetone are then mixed to produce the crystallized product.

C[C@@H](O)[C@H](N)C(=O)O (racemic) [D,L-Threonine]
maximum concentration ratio in water: 160 g/L
